Source: the supplement of paper PMC10307832

How the values were obtained:
Assay in all cases: relative viability (nuclei count vs DMSO), 5 days (fraction); higher = more cells survive
BAM7 + Pemetrexed = compound: CCOC1=CC=CC=C1N=NC2=C(NN(C2=O)C3=NC(=CS3)C4=CC=CC=C4)C [BAM7] + Nc1nc2[nH]cc(CCc3ccc(C(=O)N[C@@H](CCC(=O)O)C(=O)O)cc3)c2c(=O)[nH]1 [Pemetrexed] (partner 0.2 µM)
How it was run: (§1)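 Lung cancer cell lines were pin-tool dosed in 1536-well plates on the day after seeding, with either a lone drug or a fixed anchor-drug dose plus five library-drug doses (not always all listed) in √10 steps. Nuclei were counted on 4× images after 5 days. Relative viability is the ratio of treated-well to vehicle-well nuclei counts, with each value a median of duplicate plates.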

[1] = compound: CCn1c(-c2nonc2N)nc2c(C#CC(C)(C)O)ncc(OC[C@H]3CCCNC3)c21 + COc1cccc2cc(-c3nc([C@H]4CC[C@H](C(=O)O)CC4)n4ncnc(N)c34)[nH]c12 [OSI-027] (partner 0.5 µM)
How it was run: as §1

[2] = compound: CCn1c(-c2nonc2N)nc2c(C#CC(C)(C)O)ncc(OC[C@H]3CCCNC3)c21 + Nc1ncn([C@H]2C[C@H](O)[C@@H](CO)O2)c(=O)n1 [Decitabine] (partner 2 µM)
How it was run: as §1

[3] = compound: CCn1c(-c2nonc2N)nc2c(C#CC(C)(C)O)ncc(OC[C@H]3CCCNC3)c21 + O=C(c1cc(Cc2n[nH]c(=O)c3ccccc23)ccc1F)N1CCN(C(=O)C2CC2)CC1 [Olaparib] (partner 8 µM)
How it was run: as §1

Row | Cell Line | relative viability (BAM7 + Pemetrexed; first compound 0.5 µM) | relative viability (BAM7 + Pemetrexed; first compound 5 µM) | relative viability (BAM7 + Pemetrexed; first compound 15.81 µM) | relative viability (BAM7 + Pemetrexed; first compound 50 µM) | relative viability ([1]; first compound 0.01 µM) | relative viability ([1]; first compound 0.03162 µM) | relative viability ([1]; first compound 0.1 µM) | relative viability ([1]; first compound 0.3162 µM) | relative viability ([1]; first compound 1 µM) | relative viability ([2]; first compound 0.01 µM) | relative viability ([2]; first compound 0.03162 µM) | relative viability ([2]; first compound 0.1 µM) | relative viability ([2]; first compound 0.3162 µM) | relative viability ([2]; first compound 1 µM) | relative viability ([3]; first compound 0.01 µM) | relative viability ([3]; first compound 0.03162 µM) | relative viability ([3]; first compound 0.1 µM) | relative viability ([3]; first compound 0.3162 µM) | relative viability ([3]; first compound 1 µM)
1 | COR-L23 | 0.209 | 0.182 | 0.193 | 0.206 | 0.839 | 0.698 | 0.687 | 0.478 | 0.384 | 0.429 | 0.353 | 0.348 | 0.352 | 0.38 | 0.329 | 0.429 | 0.357 | 0.379 | 0.376
2 | ABC-1 | – | – | – | – | 0.394 | 0.36 | 0.394 | 0.31 | 0.304 | 1.18 | – | 1.2 | 0.97 | 1.02 | 0.684 | – | 0.977 | 1.05 | 1.03
3 | SW 900 | – | 0.44 | – | 0.505 | 0.452 | 0.321 | 0.507 | 0.435 | 0.562 | 0.425 | 0.442 | 0.502 | 0.484 | 0.42 | 0.871 | 0.853 | 0.742 | 0.88 | 0.864
4 | NCI-H838 | 0.293 | 0.259 | 0.249 | 0.231 | 0.354 | 0.406 | 0.367 | 0.401 | 0.428 | 0.452 | 0.416 | 0.482 | 0.44 | 0.497 | 0.74 | 0.838 | 0.804 | 0.726 | 0.76
5 | NCI-H1648 | 0.874 | 0.88 | 0.677 | 1.03 | – | 0.271 | 0.278 | 0.265 | 0.246 | 0.565 | 0.482 | 0.464 | 0.491 | 0.498 | 0.937 | 0.851 | 0.767 | 0.604 | 0.567
6 | A549 | – | – | – | – | – | – | – | – | – | 0.207 | 0.202 | 0.292 | 0.27 | 0.215 | 0.407 | 0.351 | 0.318 | 0.301 | 0.257
7 | A-427 | 1.02 | 0.935 | 0.93 | 1.04 | 0.413 | 0.578 | 0.367 | 0.509 | 0.443 | 0.558 | 0.61 | 0.589 | 0.54 | 0.562 | 0.737 | 0.203 | 0.75 | 0.683 | 0.709
8 | NCI-H1792 | 0.943 | 1.13 | 0.707 | 0.816 | 0.739 | – | 0.696 | 0.715 | 0.842 | 0.558 | 0.499 | 0.547 | 0.419 | 0.518 | 0.53 | 0.502 | 0.473 | 0.374 | 0.589
9 | LCLC-97TM1 | 0.19 | 0.147 | – | 0.159 | 0.49 | 0.502 | 0.484 | 0.515 | 0.439 | 0.2 | 0.226 | 0.268 | 0.235 | 0.268 | 0.413 | 0.509 | 0.347 | 0.391 | 0.321
10 | NCI-H1703 | – | – | – | – | – | – | – | – | – | – | – | – | – | – | 0.406 | 0.506 | 0.468 | 0.587 | 0.31
